Measurements as given in article PMC3082566, “PTB Domain-Directed Substrate Targeting in a Tyrosine Kinase from the Unicellular Choanoflagellate Monosiga brevicollis” (PLoS ONE, 2011).

Tests used:
HMTK1 [1] = experiment: Phosphorylation of peptide substrates by purified HMTK1 (phosphocellulose paper assay); type: biochemical, Monosiga brevicollis; conditions: 6 minutes at 30°C; for HMTK1 activity toward peptide (comparison of c-Src and Monosiga-derived peptides): 750 µM peptide, 400 nM HMTK1, pH 7.4, phosphocellulose paper assay, Fig. 2A
Method: (§1) HMTK1 was expressed in Spodoptera frugiperda (Sf9) insect cells using the Bac-to-Bac system (Invitrogen). Sf9 cells (800 ml) were infected with HMTK1 baculovirus and harvested after three days. Cells were lysed in a French pressure cell, and His-tagged HMTK1 was purified using nickel-nitrilotriacetic acid resin (Qiagen), as described previously. Peak fractions were pooled and concentrated in an Amicon Ultrafiltration device (molecular weight cutoff: 30,000 daltons). The purified protein was stored in 40% glycerol at −20°C. The isolated PTB domain of HMTK1 was produced as a fusion with glutathione S-transferase (GST). E. coli cells (1 liter) expressing the GST fusion protein were lysed in a French pressure cell, and the GST-PTB protein was purified by chromatography on a glutathione-agarose column (Molecular Probes).
Kinase assays were performed by two methods. Initial activity measurements were performed by the phosphocellulose paper binding assay. Reaction mixtures contained 20 mM Tris-HCl (pH 7.4), 10 mM MgCl2, 0.2 mM ATP, [γ-^32P]-ATP (30–50 cpm/pmol), and varying amounts of HMTK1 and peptide substrates. All peptide substrates were purified by high pressure liquid chromatography and characterized by mass spectrometry prior to use. […] Initial rate kinetic measurements on the PTB ligand-containing substrate ([…]pYATLG) and on the Phe-containing PTB control ([…]) were carried out using a continuous spectrophotometric assay. Reactions were performed at 30°C in a final volume of 50 µl. The reactions contained 100 mM Tris pH 7.4, 10 mM MgCl2, 2 mM ATP, 1.5 mM phosphoenolpyruvate, 90 units/ml of pyruvate kinase, 109 units/ml of lactate dehydrogenase, and 1.2 mg/ml of NADH. For determination of Km values, the enzyme concentrations were 0.3–0.5 µM and the peptide concentrations ranged from 0–700 µM. Kinetic constants were determined by nonlinear fitting to the [substrate] vs. velocity curves using GraphPad Prism 4.
Figure 1 Monosiga brevicollis HMTK1 kinase. (A) Domain arrangement of HMTK1. (B) Amino acid sequence of the PTB-kinase HMTK1 construct used in this study. The HMD motif in the catalytic loop is underlined. (C) Tyrosine kinase activity of HMTK1. […] Reactions proceeded for 6 minutes at 30°C, and enzyme activity was measured using the phosphocellulose paper assay.
Figure 2 Additional HMTK1 peptide phosphorylation assays. Reactions proceeded for 6 minutes at 30°C, and enzyme activity was measured using the phosphocellulose paper assay. […] (B) Phosphorylation of SH2-binding substrates containing various spacer lengths between the pY residue and the phosphorylatable tyrosine. The peptides are shown schematically, with the phosphorylation site in blue, the SH2-binding ligand (pYEEI) in red, and the number of intervening amino acids in a box. The sequences of the peptides are: […]pYEEIG (spacer = 11), […]pYEEIG (spacer = 7), and […]pYEEIG (spacer = 3); SH2 control substrate, […] (spacer = 11); substrate peptide, […]. Reactions contained 70 µM peptides. Error bars show standard deviation.

MbSrc1 = conditions: ref [13], [14]; cited from earlier work
MbSrc4 = conditions: ref [13], [14]; cited from earlier work
HMTK1 [2] = experiment: Co-expression of HMTK1 with mammalian receptor tyrosine kinases: binding or phosphorylation; type: cell-based, Monosiga brevicollis; conditions: data not shown
[3] = target: PTB ligand-containing substrate (…pYATLG)
Chain of PTB ligand-containing substrate (…pYATLG) (peptide, as listed by the source): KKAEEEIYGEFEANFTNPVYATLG

[4] = target: Phe-containing PTB control substrate (…)
[5] = target: SH2 binding substrate, spacer = 11 (…pYEEIG)
Chain of SH2 binding substrate, spacer = 11 (…pYEEIG) (peptide, as listed by the source): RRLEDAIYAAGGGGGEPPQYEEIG

HMTK1 [6] = experiment: Steady-state kinetics, continuous spectrophotometric assay; type: biochemical, Monosiga brevicollis; conditions: HMTK1 0.3–0.5 µM; peptide 0–700 µM; 100 mM Tris pH 7.4, 10 mM MgCl2, 2 mM ATP; 30°C; nonlinear fitting
Method: Kinase assays were performed by two methods. Initial activity measurements were performed by the phosphocellulose paper binding assay. Reaction mixtures contained 20 mM Tris-HCl (pH 7.4), 10 mM MgCl2, 0.2 mM ATP, [γ-^32P]-ATP (30–50 cpm/pmol), and varying amounts of HMTK1 and peptide substrates. All peptide substrates were purified by high pressure liquid chromatography and characterized by mass spectrometry prior to use. The following substrates were used: c-Src peptide, […]; MbSTAT peptide, […]; RTKB2 peptide 1, […]; RTKB2 peptide 2, […]; SH2 binding substrates (varying linker lengths), […]pYEEIG, […]pYEEIG, and […]pYEEIG; SH2 control substrate, […]. Initial rate kinetic measurements on the PTB ligand-containing substrate ([…]pYATLG) and on the Phe-containing PTB control ([…]) were carried out using a continuous spectrophotometric assay. Reactions were performed at 30°C in a final volume of 50 µl. The reactions contained 100 mM Tris pH 7.4, 10 mM MgCl2, 2 mM ATP, 1.5 mM phosphoenolpyruvate, 90 units/ml of pyruvate kinase, 109 units/ml of lactate dehydrogenase, and 1.2 mg/ml of NADH. For determination of Km values, the enzyme concentrations were 0.3–0.5 µM and the peptide concentrations ranged from 0–700 µM. Kinetic constants were determined by nonlinear fitting to the [substrate] vs. velocity curves using GraphPad Prism 4.

HMTK1 [7] = experiment: Binding of purified HMTK1 to immobilized PTB ligand peptides; design: species or system Monosiga brevicollis; conditions: 6.6 µg HMTK1; peptide on Affi-Gel resin; 1 hour at 4°C; anti-His6 Western; Fig. 5A
Method: The PTB ligand-containing peptide, Phe-containing PTB control, and pYEEI peptide (EPQpYEEIG) were linked to Affi-Gel 15 resin (Bio-Rad) following the manufacturer's protocols. Purified HMTK1 or the isolated PTB domain were incubated for 1 hour at 4°C with the immobilized peptides. After binding, the beads were washed 4 times with 1 ml of binding buffer (50 mM Tris-HCl pH 7.5, 5 mM EDTA, 100 mM NaCl, 0.1% Triton X-100, 1 mM DTT, 0.5 mM Na3VO4). Bound proteins were eluted with SDS-PAGE loading buffer, separated by 10% SDS-PAGE, and visualized either by Coomassie blue staining or by Western blotting.
Figure 5 Substrate targeting by PTB ligand. (A) Purified HMTK1 (6.6 µg) was incubated with PTB ligand-containing substrate ([…]pYATLG), PTB control substrate ([…]), pYEEI peptide, or control resin in final volumes of 60 µl. After washing, bound proteins were eluted with SDS-PAGE sample buffer and analyzed by Western blotting with anti-His6-tag antibody. (B) The kinase activity of HMTK1 (300 nM) toward the PTB ligand-containing substrate or PTB control substrate (shown schematically) was determined using the phosphocellulose paper assay. The reaction contained 20 mM Tris-HCl (pH 7.4), 10 mM MgCl2, 0.2 mM ATP, 30 µM peptide, and [γ-^32P]-ATP. […] Incorporation of ^32P into the peptides was determined by scintillation counting.

[8] = test system: FLAG-tagged wild-type HMTK1; experiment: Pulldown of FLAG-tagged wild-type HMTK1 from SYF cell lysates with immobilized peptides; type: binding, Monosiga brevicollis; conditions: immobilized peptide; anti-FLAG Western; Fig. 3C
Method: For expression in insect cells, HMTK1 DNA (encoding residues 341–761) was cloned into the EcoRI site of pFastbac-Hta (Invitrogen). FLAG-tagged HMTK1 was expressed in mammalian cells by subcloning into the BglII and BamHI sites of p3XFLAG-CMV (Sigma). The ΔPTB version of this construct was prepared by PCR amplification and subsequent recloning into the BamHI and EcoRI sites of p3XFLAG-CMV. Site-directed mutagenesis of FLAG-HMTK1 was carried out using the QuikChange kit (Stratagene). To express the isolated third PTB domain (residues 341–474) in bacterial cells, this PCR fragment was cloned into the EcoRI site of plasmid pGEX-4T-1 (GE Healthcare). All constructs were confirmed by DNA sequencing.
The PTB ligand-containing peptide, Phe-containing PTB control, and pYEEI peptide (EPQpYEEIG) were linked to Affi-Gel 15 resin (Bio-Rad) following the manufacturer's protocols. Purified HMTK1 or the isolated PTB domain were incubated for 1 hour at 4°C with the immobilized peptides. […]
Figure 3 Binding reactions with pYEEI-containing peptide. […] Bound proteins were eluted with SDS-PAGE sample buffer and analyzed by gel electrophoresis with Coomassie blue staining. […] After washing, bound proteins were eluted with SDS-PAGE sample buffer and analyzed by Western blotting with anti-GST antibody. […] After washing, bound proteins were analyzed by anti-FLAG Western blotting. […]

HMTK1 [9] = experiment: Phosphorylation of SH2-binding substrates with varying spacer lengths by HMTK1 (phosphocellulose paper assay); type: biochemical, Monosiga brevicollis; conditions: 70 µM peptides; spacer of 11 residues; 6 minutes at 30°C; Fig. 2B
Method: as §1
Kinase assays were performed by two methods. Initial activity measurements were performed by the phosphocellulose paper binding assay. […] Kinetic constants were determined by nonlinear fitting to the [substrate] vs. velocity curves using GraphPad Prism 4.
Figure 2 Additional HMTK1 peptide phosphorylation assays. Reactions proceeded for 6 minutes at 30°C, and enzyme activity was measured using the phosphocellulose paper assay. […]

## AEEEIYGEFEAKKKG [c-Src peptide, acidophilic Src peptide, reference compound]
HMTK1 [1]
  HMTK1 activity toward peptide (comparison of c-Src and Monosiga-derived peptides): roughly equivalent activity
HMTK1 [1]; 32P-labeled ATP, 500 µM peptide, 20 mM Tris-HCl pH 7.4, 10 mM MgCl2, 0.2 mM ATP, Fig. 1C
  phosphorylation of peptide by HMTK1: phosphorylated this peptide efficiently

## AEEVYEAIADKKK [RTKB2 peptide 2]
MbSrc1
  MbSrc1 activity compared with the c-Src peptide: substantially higher activities
MbSrc4
  MbSrc4 activity compared with the c-Src peptide: substantially higher activities
HMTK1 [1]
  HMTK1 activity toward peptide (comparison of c-Src and Monosiga-derived peptides): highest activity

## ErbB2: mammalian receptor tyrosine kinase
HMTK1 [2]
  binding or phosphorylation by co-expressed HMTK1: failed to bind or phosphorylate

## His-tagged HMTK1 PTB-kinase construct (residues 341-761) (enzyme)
[3]
  Km of peptide phosphorylation by HMTK1 (continuous spectrophotometric assay, 30°C): 33 µM
[4]
  Km of peptide phosphorylation by HMTK1 (continuous spectrophotometric assay, 30°C): 450 µM
[5]
  other: 5 fold

## IGF1R: mammalian receptor tyrosine kinase
HMTK1 [2]
  binding or phosphorylation by co-expressed HMTK1: failed to bind or phosphorylate

## KKAEEEIYGEFEANFTNPVFATLG [Phe peptide, control peptide in which the pTyr residue was replaced with Phe]
HMTK1 [6]
  Km: 450 µM
HMTK1 [7]
  binding to purified HMTK1: undetectable

## KKKASGYVMADIA [MbSTAT peptide, from a putative M. brevicollis STAT]
HMTK1 [1]
  HMTK1 activity toward peptide (comparison of c-Src and Monosiga-derived peptides): no significant activity

## LRRApSLG [phospho-Kemptide, immobilized phosphoserine-containing peptide]
[8]
  binding to wild-type HMTK1 (SYF lysate): failed to bind

## RRLEDAIYAAGGGGGEPPQpYEEIG [SH2-binding substrate]
HMTK1 [9]
  phosphorylation relative to control sequence lacking phosphotyrosine: 5 fold
  phosphorylation relative to shortened peptide containing only the substrate motif: 5 fold

## SEEVYGAVVDKKK [RTKB2 peptide 1]
MbSrc1
  MbSrc1 activity compared with the c-Src peptide: substantially higher activities
MbSrc4
  MbSrc4 activity compared with the c-Src peptide: substantially higher activities
HMTK1 [1]
  HMTK1 activity toward peptide (comparison of c-Src and Monosiga-derived peptides): roughly equivalent activity
